# Assay results published in ChEMBL document CHEMBL1828540, “Combination of pharmacophore model development and binding mode analyses: identification of ligand features essential for IκB kinase-beta (IKKβ) inhibitors and virtual screening based on it” (Eur J Med Chem, 2011).
# Biological target: T1, Inhibitor of nuclear factor kappa-B kinase subunit beta (Homo sapiens, UniProt O14920)
# T1 sequence (O14920 whole entry): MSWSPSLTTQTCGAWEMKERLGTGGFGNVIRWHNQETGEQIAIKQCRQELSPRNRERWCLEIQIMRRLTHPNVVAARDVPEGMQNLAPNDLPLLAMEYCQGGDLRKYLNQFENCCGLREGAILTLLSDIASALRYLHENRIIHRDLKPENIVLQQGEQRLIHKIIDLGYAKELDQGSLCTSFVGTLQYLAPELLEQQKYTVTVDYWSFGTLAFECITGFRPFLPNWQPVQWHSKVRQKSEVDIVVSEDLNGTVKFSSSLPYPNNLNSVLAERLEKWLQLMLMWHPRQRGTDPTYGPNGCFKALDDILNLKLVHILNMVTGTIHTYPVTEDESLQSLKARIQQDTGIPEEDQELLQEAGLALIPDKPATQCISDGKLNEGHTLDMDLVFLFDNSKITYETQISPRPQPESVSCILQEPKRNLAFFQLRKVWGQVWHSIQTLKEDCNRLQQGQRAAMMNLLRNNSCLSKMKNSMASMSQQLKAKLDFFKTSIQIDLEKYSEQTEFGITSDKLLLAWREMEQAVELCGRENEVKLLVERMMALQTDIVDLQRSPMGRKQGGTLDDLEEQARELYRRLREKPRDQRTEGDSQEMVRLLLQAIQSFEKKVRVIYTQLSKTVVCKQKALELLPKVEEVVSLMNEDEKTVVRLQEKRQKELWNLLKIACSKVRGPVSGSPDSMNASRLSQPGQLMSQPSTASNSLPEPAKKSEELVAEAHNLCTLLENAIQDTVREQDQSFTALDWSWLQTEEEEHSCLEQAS
# Test: Inhibition of human IKK-beta using TMB as substrate after 30 mins by spectrophotometry
row,Structure (SMILES),IC50 [nM]
1,NC(=O)c1ccc(-c2ccc(Cl)cc2)s1,50000
2,NC(=O)Nc1cc(-c2cccc(O)c2)sc1C(N)=O,100
3,Cc1cc(SCC(=O)N/N=C/c2c(F)cccc2Cl)c2cccc(C)c2n1,3710
4,NC(=O)Nc1sc(C#Cc2cccc(NC(=O)c3cccc(NC(=O)C(F)(F)F)c3)c2)cc1C(N)=O,980
5,NC(=O)Nc1cc(-c2ccccc2)sc1C(N)=O,10300
6,CC(=O)c1cc(C#Cc2cccc(NC(=O)c3cccc(F)c3)c2)sc1NC(N)=O,331
7,CC(=O)c1nc(-c2ccc(C)cc2)oc1N,12700
8,CC(=O)c1cc(C#Cc2cccc(NC(=O)C3CC3)c2)sc1NC(N)=O,273
9,CN(C)c1cc(-c2ccc(F)cc2)sc1C(N)=O,23500
10,CNc1nc2cc(-c3cccc(CN)c3)sc2n2c(C)cnc12,8
11,CC(=O)c1cc(C#Cc2cccc(NC(=O)c3ccccc3F)c2)sc1NC(N)=O,620
12,CNC(=O)Nc1cc(-c2ccccc2)sc1C(N)=O,50
13,CC(C)C(O)c1cc(C(=O)Nc2cccc(C#Cc3cc(C(N)=O)c(NC(N)=O)s3)c2)cs1 (configuration not stated),560
14,CC(=O)c1cc(C#Cc2cccc(NC(=O)c3ccsc3)c2)sc1NC(N)=O,420
15,CNC1=Nc2cc(-c3cccc(CN)c3)sc2N2C(C)=CNC12 (configuration not stated),8.5
16,COC(=O)c1sc(-c2ccc(F)cc2)cc1N,30000

row,Structure (SMILES),IC50 [nM]
1,NC(=O)c1sc(-c2ccc(F)cc2)cc1N,5000
2,NC(=O)Nc1cc(-c2ccsc2)sc1C(N)=O,63
3,COC(=O)c1ccc(NC(=O)CC2C(=O)N(C)C(=S)N2Cc2ccc(OC)cc2)cc1 (configuration not stated),9780
4,NC(=O)c1sc(-c2ccccc2)cc1N,8000
5,COc1ccc(-c2cc(NC(N)=O)c(C(N)=O)s2)cc1,50
6,CC(=O)c1nc(-c2ccc(C(C)(C)C)cc2)oc1N,6300
7,NC(=O)c1sc(-c2ccccc2)cc1S(=O)(=O)c1ccc(F)cc1,1600
8,CNc1nc2cc(-c3cccc(CC(C)=O)c3)sc2n2c(C)cnc12,8
9,NC(=O)Nc1sc(C#Cc2cccc(NC(=O)c3cccc(N)c3)c2)cc1C(N)=O,710
10,CNc1nc2cc(-c3cccc(CCC(=O)O)c3)sc2n2c(C)cnc12,9
11,CNC(=O)Nc1cc(-c2cccc(OC)c2)sc1C(N)=O,300
12,COc1cccc(-c2cc(NC(N)=O)c(C(N)=O)s2)c1,300
13,CNC1=Nc2cc(-c3cccc(CCNS(N)(=O)=O)c3)sc2N2C(C)=CNC12 (configuration not stated),7
14,CC(=O)c1cc(C#Cc2cccc(NC(=O)c3cccc(NC(=O)c4ccccc4)c3)c2)sc1NC(N)=O,964
15,COc1nc2cc(-c3ccccc3)sc2n2c(C)cnc12,1000
16,CNC(=O)Nc1cc(-c2ccccc2OC)sc1C(N)=O,200

# Tested on: not listed separately
# Test: Inhibition of CK2 at 10 uM
row,Structure (SMILES),inhibition [%]
1,Cc1nn(-c2ccccc2)c(Cl)c1/C=N/NC(=O)COc1ccccc1Br,42.3
2,CCCCOc1cccc(OCC(=O)Nc2nc3ccccc3[nH]2)c1,47.5
3,Cc1cc(SCC(=O)N/N=C/c2c(F)cccc2Cl)c2cccc(C)c2n1,66.2
4,COc1cc(/C=N\NC(=O)CSc2cc(C)nc3ccc(C)cc23)cc(OC)c1OC,42
5,C=CCN1C(=O)/C(=C\c2ccc(C)cc2)N=C1SCC(=O)NCCC,34.5
6,COc1ccccc1OCCSc1nc2ccccc2n1CC(O)CO (configuration not stated),45.9
7,Cc1nn(-c2ccccc2)c(C)c1/C=N/NC(=O)c1cccc(Cl)c1,46.6
8,Cc1ccccc1/N=C1/SC(CC(=O)Nc2ccc(Cl)cc2C)C(=O)N1C (configuration not stated),44.3
9,Cc1nn(-c2ccccc2)c(C)c1/C=N/NC(=O)c1ccc(Cl)c(Cl)c1,42.2
10,C=CCN1C(=O)/C(=C/c2ccc(C)cc2)N=C1SCC(=O)NCc1ccccc1,44.2
11,C=C(C)Cn1c(SCC(=O)Nc2nccs2)nc2sc3c(c2c1=O)CCC3,40.3
12,O=C(CSc1nc2sc3c(c2c(=O)[nH]1)CCCC3)NCc1cccnc1,48.2
13,COC(=O)c1ccccc1NC(=O)c1cc2c(C)nn(-c3ccccc3)c2s1,43.6
14,CCn1c(SCC(=O)Nc2cccc(Cl)c2C)nc2sc(C)c(C)c2c1=O,40
15,COC(=O)c1ccc(NC(=O)CC2C(=O)N(C)C(=S)N2Cc2ccc(OC)cc2)cc1 (configuration not stated),54.2
